Results published in patent US20130324707A1, “SYNTHETIC AMPHIPHILES FOR MEMBRANE PROTEIN MANIPULATION” (The Board of Trustees of the Leland Stanford Junior …, priority 2009, published 2013).
Marks after values point to notes of the source that are not given here.

Experiments:
[1] = Critical micelle concentration (CMC) by fluorescent dye uptake; type: physicochemical
Text: The Critical Micelle Concentrations (CMCs) of compounds of the invention can be determined by standard techniques known to those of skill in the art. For example, CMCs of the carbohydrate-based amphiphiles described herein can be determined by monitoring uptake of a fluorescent dye (e.g., a dye such as 1,6-diphenylhexatriene) with increasing detergent concentration, monitored by fluorescence spectroscopy.

[2] = tested on: human β2 adrenergic receptor-T4-lyosome fusion protein (β2AR-T4L); assay: Thermal stabilization (Tm) of β2AR-T4L in amphiphile, normalized peak ratio 341 nm/356 nm; parameters: Tm: unit: °C; conditions: for Tm: β2AR-T4L
Text: FIG. 3 illustrates the results of comparing MNGs to MPAs at 10×CMC for stabilization efficacy of β2 adrenergic receptor-T4-lyosome fusion protein (β2AR-T4L), according to an embodiment of the invention.
FIG. 4 illustrates the results of comparing MNGs to MPAs at 50×CMC for stabilization efficacy of β2AR-T4L, according to an embodiment of the invention. Similar to FIG. 3, the horizontal dotted line extending from 50% on the y-axis in FIG. 4 indicates the melting temperature (Tm).
The branched amphiphiles of the invention have shown to have several advantageous properties that match or surpass those of many known amphiphiles. The branched nature provide improved stabilization, attributable to the dual saccharide chains, and improved solubilization, attributable to the dual hydrophobic tail groups. FIGS. 3 and 4 show a comparative study showing normalized peak ratios (341 nm/356 nm) for six different amphiphiles (illustrated in Schemes F and G) from 25° C. to 85° C., at 10×CMC and 50×CMC for human β2 adrenergic receptor-T4-lyosome fusion protein (β2AR-T4L).

[3] = 10 × CMC, scan from 25° C. to 85° C.
[4] = concentration not given, matches most favourable (*) Tm minus DDM 63.5

Row | Compound | CMC [1] [mM] | CMC (%) [1] [%] | ΔTm ([2]; 10 × CMC, relative to DDM) | Tm [2, 3] | ΔTm ([2]; 50 × CMC, relative to DDM) | Tm ([2]; 50 × CMC) | ΔTm [2, 4]
1 | OCC1OC(OCC(COC2OC(CO)C(O)C(O)C2O)(CSC2CCCCC2)CSC2CCCCC2)C(O)C(O)C1O (stereo not drawn) [GNG-1] | 2.1 | 0.13 | – | – | – | – | –
2 | O=C(NCC(CNC(=O)C1CCCC1)(COC1OC(CO)C(O)C(O)C1O)COC1OC(CO)C(O)C(O)C1O)C1CCCC1 (stereo not drawn) [GNG-4] | 72 | 4.7 | – | – | – | – | –
3 | CCCCCCOCC(COCCCCCC)(COC1OC(CO)C(O)C(O)C1O)COC1OC(CO)C(O)C(O)C1O (stereo not drawn) [GNG-6] | 1.55 | 0.08 | – | – | – | – | –
4 | CCCCCCCOCC(COCCCCCCC)(COC1OC(CO)C(O)C(O)C1O)COC1OC(CO)C(O)C(O)C1O (stereo not drawn) [GNG-7] | 0.1 | 0.0092 | – | – | – | – | –
5 | OCC1OC(OCC(COC2CCCCC2)(COC2CCCCC2)COC2OC(CO)C(O)C(O)C2O)C(O)C(O)C1O (stereo not drawn) [GNG-10] | 17 | 1.07 | – | – | – | – | –
6 | OCC1OC(OCC(COC2OC(CO)C(O)C(O)C2O)(CSCCc2ccccc2)CSCCc2ccccc2)C(O)C(O)C1O (stereo not drawn) [GNG-11] | 0.82 | 0.06 | – | – | – | – | –
7 | CCCCCCC(CCCCCC)(COC1OC(CO)C(O)C(O)C1O)COC1OC(CO)C(O)C(O)C1O (stereo not drawn) [GNG-12] | 1.02 | 0.058 | – | – | – | – | –
8 | CCCCCC(CCCCC)(COC1OC(CO)C(O)C(O)C1O)COC1OC(CO)C(O)C(O)C1O (stereo not drawn) [GNG-13] | 9.64 | 0.373 | – | – | – | – | –
9 | CCCCCOCC(COCCCCC)(COC1OC(CO)C(O)C(O)C1O)COC1OC(CO)C(O)C(O)C1O (stereo not drawn) [GNG-14] | 13.4 | 0.647 | – | – | – | – | –
10 | CCCCCCCCCCC(=O)NCC(CNC(=O)CCCCCCCCCC)(CO[C@H]1OC(CO)[C@H](O[C@@H]2OC(CO)[C@H](O)C(O)[C@H]2O)C(O)[C@H]1O)CO[C@H]1OC(CO)[C@H](O[C@@H]2OC(CO)[C@H](O)C(O)[C@H]2O)C(O)[C@H]1O (stereo partly drawn) [MNG-1] | 0.017 | 0.0019 | +1.6 | 65.1 (n = 3)* | +2.1 | 65.1 (n = 3)* | +1.6
11 | CCCCCCCCCCCC(CCCCCCCCCCC)(CO[C@H]1OC(CO)[C@H](O[C@@H]2OC(CO)[C@H](O)C(O)[C@H]2O)C(O)[C@H]1O)CO[C@H]1OC(CO)[C@H](O[C@@H]2OC(CO)[C@H](O)C(O)[C@H]2O)C(O)[C@H]1O (stereo partly drawn) [MNG-4] | 0.0037 | 0.00038 | +0.6 | 64.1 (n = 3) | +4.3 | 67.3 (n = 3)* | +3.8
12 | CCCCCCCCCCOCC(COCCCCCCCCCC)(CO[C@H]1OC(CO)[C@H](O[C@@H]2OC(CO)[C@H](O)C(O)[C@H]2O)C(O)[C@H]1O)CO[C@H]1OC(CO)[C@H](O[C@@H]2OC(CO)[C@H](O)C(O)[C@H]2O)C(O)[C@H]1O (stereo partly drawn) [MNG-6] | 0.009 | 0.00096 | +1.1 | 64.6 (n = 3) | +4.1 | 67.1 (n = 3)* | +3.6
13 | O=C(CCCC1CCCCC1)NCC(CNC(=O)CCCC1CCCCC1)(COC1OC(CO)C(OC2OC(CO)C(O)C(O)C2O)C(O)C1O)COC1OC(CO)C(OC2OC(CO)C(O)C(O)C2O)C(O)C1O (stereo not drawn) [MNG-9] | 0.39 | 0.043 | – | – | – | – | –
14 | O=C(CCCCC1CCCCC1)NCC(CNC(=O)CCCCC1CCCCC1)(COC1OC(CO)C(OC2OC(CO)C(O)C(O)C2O)C(O)C1O)COC1OC(CO)C(OC2OC(CO)C(O)C(O)C2O)C(O)C1O (stereo not drawn) [MNG-10] | 0.053 | 0.0059 | – | – | – | – | –
15 | CCCCCCCCCC(=O)NCC(CNC(=O)CCCCCCCCC)(COC1OC(CO)C(OC2OC(CO)C(O)C(O)C2O)C(O)C1O)COC1OC(CO)C(OC2OC(CO)C(O)C(O)C2O)C(O)C1O (stereo not drawn) [MNG-13] | 0.043 | 0.0047 | – | – | – | – | –
16 | CCCCCCCCCCCCCC(=O)NCC(CNC(=O)CCCCCCC)(COC1OC(CO)C(OC2OC(CO)C(O)C(O)C2O)C(O)C1O)COC1OC(CO)C(OC2OC(CO)C(O)C(O)C2O)C(O)C1O (stereo not drawn) [MNG-15] | 0.02 | 0.0022 | – | – | – | – | –

Row | Compound | CMC [1] [mM] | CMC (%) [1] [%] | ΔTm ([2]; 10 × CMC, relative to DDM) | Tm [2, 3] | ΔTm ([2]; 50 × CMC, relative to DDM) | Tm ([2]; 50 × CMC) | ΔTm [2, 4]
17 | CCCCCCCCCCCCCCCC(=O)NCC(CNC(=O)CCCCC)(COC1OC(CO)C(OC2OC(CO)C(O)C(O)C2O)C(O)C1O)COC1OC(CO)C(OC2OC(CO)C(O)C(O)C2O)C(O)C1O (stereo not drawn) [MNG-16] | 0.023 | 0.0026 | – | – | – | – | –
18 | CCCCCCCCCCCCC(=O)NCC(CNC(=O)CCCCCCCC)(COC1OC(CO)C(OC2OC(CO)C(O)C(O)C2O)C(O)C1O)COC1OC(CO)C(OC2OC(CO)C(O)C(O)C2O)C(O)C1O (stereo not drawn) [MNG-17] | 0.02 | 0.002 | – | – | – | – | –
19 | CCCCCCCCCCCCCCC(=O)NCC(CNC(=O)CCCCCC)(COC1OC(CO)C(OC2OC(CO)C(O)C(O)C2O)C(O)C1O)COC1OC(CO)C(OC2OC(CO)C(O)C(O)C2O)C(O)C1O (stereo not drawn) [MNG-18] | 0.024 | 0.0027 | – | – | – | – | –
20 | CCCCCCCC(=O)NCC(CNC(=O)CCCCC1CCCCC1)(COC1OC(CO)C(OC2OC(CO)C(O)C(O)C2O)C(O)C1O)COC1OC(CO)C(OC2OC(CO)C(O)C(O)C2O)C(O)C1O (stereo not drawn) [MNG-19] | 0.18 | 0.0194 | – | – | – | – | –
21 | CCCCCCCCC(=O)NCC(CNC(=O)CCCCCCCC)(COC1OC(CO)C(OC2OC(CO)C(O)C(O)C2O)C(O)C1O)COC1OC(CO)C(OC2OC(CO)C(O)C(O)C2O)C(O)C1O (stereo not drawn) [MNG-20] | 0.3 | 0.0319 | – | – | – | – | –
22 | CCCCCCCC(=O)NCC(CNC(=O)C(C1CCCCC1)C1CCCCC1)(COC1OC(CO)C(OC2OC(CO)C(O)C(O)C2O)C(O)C1O)COC1OC(CO)C(OC2OC(CO)C(O)C(O)C2O)C(O)C1O (stereo not drawn) [MNG-21] | 0.24 | 0.0268 | – | – | – | – | –
23 | O=C(Cc1cc(C(F)(F)F)cc(C(F)(F)F)c1)NCC(CNC(=O)Cc1cc(C(F)(F)F)cc(C(F)(F)F)c1)(COC1OC(CO)C(OC2OC(CO)C(O)C(O)C2O)C(O)C1O)COC1OC(CO)C(OC2OC(CO)C(O)C(O)C2O)C(O)C1O (stereo not drawn) [MNG-23] | 0.9 | 0.1162 | – | – | – | – | –
24 | O=C(CCc1cc(C(F)(F)F)cc(C(F)(F)F)c1)NCC(CNC(=O)CCc1cc(C(F)(F)F)cc(C(F)(F)F)c1)(COC1OC(CO)C(OC2OC(CO)C(O)C(O)C2O)C(O)C1O)COC1OC(CO)C(OC2OC(CO)C(O)C(O)C2O)C(O)C1O (stereo not drawn) [MNG-24] | 0.84 | 0.1108 | – | – | – | – | –
25 | CC(C)(C)C1CCC(C(=O)NCC(CNC(=O)C2CCC(C(C)(C)C)CC2)(COC2OC(CO)C(OC3OC(CO)C(O)C(O)C3O)C(O)C2O)COC2OC(CO)C(OC3OC(CO)C(O)C(O)C3O)C(O)C2O)CC1 (stereo not drawn) [MNG-26] | 0.12 | 0.0134 | – | – | – | – | –
26 | CCCCCCCCCCCC(=O)NCC(CNC(=O)CCCCCCCCCCC)(COC1OC(CO)C(OC2OC(CO)C(O)C(O)C2O)C(O)C1O)COC1OC(CO)C(OC2OC(CO)C(O)C(O)C2O)C(O)C1O (stereo not drawn) [MNG-27] | 0.008 | 0.0009 | – | – | – | – | –
27 | CCCCCCCCCOCC(COCCCCCCCCC)(COC1OC(CO)C(OC2OC(CO)C(O)C(O)C2O)C(O)C1O)COC1OC(CO)C(OC2OC(CO)C(O)C(O)C2O)C(O)C1O (stereo not drawn) [MNG-30] | 0.017 | 0.0018 | – | – | – | – | –
28 | CCCCCCCCOCC(COCCCCCCCC)(COC1OC(CO)C(OC2OC(CO)C(O)C(O)C2O)C(O)C1O)COC1OC(CO)C(OC2OC(CO)C(O)C(O)C2O)C(O)C1O (stereo not drawn) [MNG-31] | 0.034 | 0.0034 | – | – | – | – | –
29 | CCCCC(CCCC)OCC(COC(CCCC)CCCC)(COC1OC(CO)C(OC2OC(CO)C(O)C(O)C2O)C(O)C1O)COC1OC(CO)C(OC2OC(CO)C(O)C(O)C2O)C(O)C1O (stereo not drawn) [MNG-33] | 0.092 | 0.0095 | – | – | – | – | –
30 | CCCCCCCCCCC(=O)NCCOC1OC(CO)C(OC2OC(CO)C(O)C(O)C2O)C(O)C1O (stereo not drawn) [MPA-6] | – | – | −12.1 | 51.4 (n = 3)* | – | – | −12.1
31 | CCCCCCCCCCOCCOC1OC(CO)C(OC2OC(CO)C(O)C(O)C2O)C(O)C1O (stereo not drawn) [MPA-11] | – | – | −4.7 | 58.8 (n = 3)* | −4.7 | 58.3 (n = 3) | −4.7
